The values below come from ChEMBL document CHEMBL1287709, “Trifluoromethylphenyl as P2 for ketoamide-based cathepsin S inhibitors” (Bioorg Med Chem Lett, 2010).

Assay [1] concerns the target T1, Cathepsin S (Homo sapiens, UniProt P25774). As to the kind of experiment: Inhibition of human cathepsin S by fluorescence assay.
In assay [2] the target is T2, Cathepsin K (Homo sapiens, UniProt P43235).
T2 sequence (P43235 whole entry): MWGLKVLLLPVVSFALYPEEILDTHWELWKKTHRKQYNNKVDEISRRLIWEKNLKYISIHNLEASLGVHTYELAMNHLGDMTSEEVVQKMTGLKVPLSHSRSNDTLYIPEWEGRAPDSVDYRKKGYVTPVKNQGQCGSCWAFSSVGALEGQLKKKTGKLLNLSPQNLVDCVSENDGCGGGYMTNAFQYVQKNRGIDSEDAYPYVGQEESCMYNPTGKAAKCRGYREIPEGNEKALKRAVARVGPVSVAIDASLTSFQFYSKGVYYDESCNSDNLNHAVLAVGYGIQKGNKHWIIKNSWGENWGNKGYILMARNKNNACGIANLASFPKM
As to the kind of experiment: Inhibition of human cathepsin K by fluorescence assay.

The target of assay [3] is Cathepsin B (Homo sapiens, UniProt P07858). Kind of assay: Inhibition of human cathepsin B by fluorescence assay.
For assay [4], the target named is Procathepsin L (Homo sapiens, UniProt P07711). As to the kind of experiment: Inhibition of human cathepsin L by fluorescence assay.
Sequence of Procathepsin L (P07711 whole entry): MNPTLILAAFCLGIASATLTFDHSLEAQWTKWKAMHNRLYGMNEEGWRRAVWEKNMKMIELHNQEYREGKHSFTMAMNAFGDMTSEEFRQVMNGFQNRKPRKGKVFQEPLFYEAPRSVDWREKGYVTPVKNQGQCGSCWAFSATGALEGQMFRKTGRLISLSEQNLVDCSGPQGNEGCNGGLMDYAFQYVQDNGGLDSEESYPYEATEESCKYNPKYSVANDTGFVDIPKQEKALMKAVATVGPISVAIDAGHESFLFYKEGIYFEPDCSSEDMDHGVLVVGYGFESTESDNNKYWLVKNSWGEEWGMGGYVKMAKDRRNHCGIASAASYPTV
For assay [5], the target named is T3, Cathepsin L2 (Homo sapiens, UniProt O60911).
T3 sequence (O60911 whole entry): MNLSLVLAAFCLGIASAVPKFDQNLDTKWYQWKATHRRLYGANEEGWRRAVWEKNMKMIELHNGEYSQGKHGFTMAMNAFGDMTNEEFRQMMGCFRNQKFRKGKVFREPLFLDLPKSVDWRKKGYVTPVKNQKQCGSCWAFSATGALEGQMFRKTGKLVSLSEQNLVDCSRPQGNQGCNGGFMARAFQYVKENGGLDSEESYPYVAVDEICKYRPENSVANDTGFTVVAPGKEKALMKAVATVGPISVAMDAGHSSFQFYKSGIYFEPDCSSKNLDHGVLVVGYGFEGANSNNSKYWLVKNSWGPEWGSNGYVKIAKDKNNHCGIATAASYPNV
Kind of assay: Inhibition of human cathepsin V by fluorescence assay.

Assay [6] concerns the target T1, Cathepsin S. Kind of assay: Inhibition of cathepsin S in human JY cells assessed as Lip10 accumulation by Western blotting. The class given is cell-based.

In general, IC50 refers to the concentration needed to halve the response being measured.

T1 sequence (P25774 whole entry): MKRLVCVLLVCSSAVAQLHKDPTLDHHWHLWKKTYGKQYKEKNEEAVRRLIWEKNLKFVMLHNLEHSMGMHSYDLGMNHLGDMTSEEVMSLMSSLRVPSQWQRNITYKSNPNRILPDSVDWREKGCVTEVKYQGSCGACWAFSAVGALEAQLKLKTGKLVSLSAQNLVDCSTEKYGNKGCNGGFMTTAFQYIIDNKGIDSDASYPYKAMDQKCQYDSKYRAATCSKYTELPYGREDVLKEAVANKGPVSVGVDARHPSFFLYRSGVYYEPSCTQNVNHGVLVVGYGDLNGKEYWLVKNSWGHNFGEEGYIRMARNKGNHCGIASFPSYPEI

Turning to `CCOc1ccc(C(=O)NC(C)C(=O)C(=O)Nc2ccn[nH]2)c(Cl)c1C(F)(F)F` (stereo not drawn), the IC50 was 2.9 nM in assay [1] and 91.2 nM in assay [2].

Turning to `N#CCNC(=O)c1cccc(C(F)(F)F)c1`, the IC50 in assay [1] and in assay [2] was > 10000 nM each time.

Regarding `CC(C)C(NC(=O)c1ccc(OCc2ccccn2)c(C(F)(F)F)c1Cl)C(=O)C(=O)Nc1ccn(C)n1` (stereo not drawn), the results for the IC50 in assay [1] and in assay [2] were 2.3 nM and 11.5 nM, respectively.

As for `CCC(C=O)NC(=O)c1cccc(C(F)(F)F)c1` (stereo not drawn), in assay [1], half-maximal inhibition (IC50) was put at 1070 nM.

For the compound `CC(NC(=O)c1cccc(C(F)(F)F)c1Cl)C(=O)C(N)=O` (stereo not drawn), the IC50 in assay [1] amounted to 30.9 nM; in assay [2] it was 107 nM.

In assay [1], `CCC(C=O)NC(=O)c1cccc(C(F)(F)F)c1C` (stereo not drawn) gave an IC50 of 18 nM.

In the case of `CCC(NC(=O)c1cccc(C(F)(F)F)c1Cl)C(=O)C(=O)Nc1ccn[nH]1` (stereo not drawn), the IC50 in assay [1] was 2.3 nM; in assay [2], 11.7 nM; in assay [3], 5750 nM; in assay [4] it was 891 nM; in assay [5] it was 29.5 nM; in assay [6] it was 1300 nM.

As for `Cc1cc(NC(=O)C(=O)C(C)NC(=O)c2cccc(C(F)(F)F)c2Cl)[nH]n1` (stereo not drawn), the figures for the IC50 in assay [1] and in assay [2] were 10.5 nM and 26.3 nM, respectively.

With `CCC(NC(=O)c1ccc(OCc2ccccn2)c(C(F)(F)F)c1Cl)C(=O)C(N)=O` (stereo not drawn), the IC50 in assay [1] came out at 1.1 nM; in assay [6], 1920 nM.

`CCC(C=O)NC(=O)c1cccc(C(F)(F)F)c1F` (stereo not drawn) displayed an IC50 in assay [1] of 36 nM.

On to `CC(NC(=O)c1ccc(OCc2ccccn2)c(C(F)(F)F)c1Cl)C(=O)C(=O)Nc1ccn(C)n1` (stereo not drawn), for which the IC50 in assay [1] worked out at 1 nM; in assay [2], 12.9 nM; in assay [3] it was 15100 nM; in assay [4], 479 nM; in assay [5], 36.3 nM.

On to `CCC(NC(=O)c1ccc(OCc2ccccn2)c(C(F)(F)F)c1Cl)C(=O)C(=O)Nc1ccn(C)n1` (stereo not drawn), for which the IC50 turned out to be 1.1 nM in assay [1]; 20.9 nM in assay [2]; 3240 nM in assay [3]; 141 nM in assay [4]; 16.6 nM in assay [5]; 78 nM in assay [6].

Turning to `CCC(C=O)NC(=O)c1cccc(C(F)(F)F)c1OC` (stereo not drawn), in assay [1], the IC50 worked out at 692 nM.

On to `CCCCC(NC(=O)c1ccc(OCc2ccccn2)c(C(F)(F)F)c1Cl)C(=O)C(=O)Nc1ccn(C)n1` (stereo not drawn), for which the IC50 in assay [1] stood at 1.9 nM; in assay [2], 47.9 nM.

Consider `CC(C=O)NC(=O)c1cccc(C(F)(F)F)c1Cl` (stereo not drawn), for which, in assay [1], the IC50 is 110 nM.

As for `CCC(C=O)NC(=O)c1cccc(C(F)(F)F)c1Cl` (stereo not drawn), the IC50 in assay [1] stood at 31 nM; in assay [2], 32 nM.

In the case of `CC(NC(=O)c1ccc(OCc2ccccn2)c(C(F)(F)F)c1Cl)C(=O)C(=O)N(C)C` (stereo not drawn), the IC50 in assay [1], in assay [2], in assay [3], in assay [4] and in assay [5] was > 10000 nM throughout.

Turning to `CCOc1ccc(C(=O)NC(C)C(=O)C(N)=O)c(Cl)c1C(F)(F)F` (stereo not drawn), the IC50 was determined as 11 nM in assay [1] and 195 nM in assay [2].

As to `CNC(=O)C(=O)C(C)NC(=O)c1ccc(OCc2ccccn2)c(C(F)(F)F)c1Cl` (stereo not drawn), the IC50 in assay [1] was 19.5 nM; in assay [2], 46.8 nM; in assay [3] it was > 10000 nM; in assay [4], > 10000 nM; in assay [5], 1120 nM.

Consider `O=CCNC(=O)c1cccc(C(F)(F)F)c1`, for which the IC50 in assay [1] and in assay [2] was > 10000 nM each time.

Take `CC(NC(=O)c1cccc(C(F)(F)F)c1Cl)C(=O)C(=O)Nc1cc[nH]n1` (stereo not drawn): the IC50 amounted to 14.1 nM in assay [1] and 51.3 nM in assay [2].

Regarding `CC(NC(=O)c1ccc(OCc2ccccn2)c(C(F)(F)F)c1Cl)C(=O)C(N)=O` (stereo not drawn), the figures for the IC50 in assay [1] and in assay [2] were 4.8 nM and 37.2 nM, respectively.

Regarding `CC(NC(=O)c1cccc(C(F)(F)F)c1Cl)C(=O)C(=O)Nc1ccn(C)n1` (stereo not drawn), the values for the IC50 in assay [1] and in assay [2] were 8.5 nM and 33.1 nM, respectively.
